Measured values reported in US20250134876A1, “METHODS OF TREATING A CANCER OVEREXPRESSING ONE OR MORE BCL-2 FAMILY PROTEINS” (Kartos Therapeutics, Inc., priority 2021, published 2025).

Tests used:
[1] = system: UKE-1 myelofibrosis cell line (TP53 wild-type); experiment: Pro-apoptotic protein expression in UKE-1 myelofibrosis cell line, intracellular flow cytometry; assay type: cell-based; conditions: UKE-1 cells, 2.5 pM, 24, 48 and 72 hours, time-dependent
Procedure: The compound of Formula (I) induces Bak, Bax and BIM expression in a myelofibrosis cell line. The UKE-1 myelofibrosis cell line (TP53 wild-type) was cultured for 24, 48 and 72 hours with 2.5 pM of compound (equivalent to levels observed in vivo following administration in patients) and stained with antibodies against various pro-apoptotic protein using intracellular flow cytometry techniques. […] The upper line is cells treated with the compound of Formula (I) while the lower line is a control (no treatment).

[2] = system: CLL tumor cells; experiment: p53 and Bcl-2 family protein expression and apoptosis (cPARP+) in patient CLL tumor cells treated ex vivo, intracellular flow cytometry; assay type: cell-based, human; conditions: CLL tumor cells on HS-5 stromal cells, 24 hours
Procedure: The effect of the compound of Formula (I) on the expression of p53 along with anti-apoptotic and pro-apoptotic proteins was assessed in tumors cells isolated from patients diagnosed with CLL. Blood samples were collected prior to the patient receiving any treatment. CLL tumor cells were isolated and incubated on HS-5 stromal cells for 24 hours and then treated with the compound of Formula (I) for 24 hours. p53 and Bcl-2 family proteins were measured by intracellular flow cytometry and shown as median fluorescent intensity (MFI). The percent cPARP+ is shown above the level of basal spontaneous apoptosis. CLL tumor cells were cultured on HS-5 stromal cells were then treated with an increasing concentrations of the compound of Formula (I) for 24 hours. The result was an increase in intracellular P53 levels along with a decrease in anti-apoptotic Bcl-XL and Mcl-1 levels, and an increase in pro-apoptotic Bax.

[3] = system: MV-411 AML cell line (TP53 wild-type); experiment: Bcl-2 family protein expression in MV-411 AML cells, intracellular flow cytometry; assay type: cell-based; conditions: MV-411 cells, 72 hours, above the concentration to induce cell stasis
Procedure: (§1) The effect of the compound of Formula (I) on inducing apoptosis along with the expression of anti-apoptotic and pro-apoptotic protein expression in the MV-411 AML cell was assessed. […] Molecular Cancer Therapeutics. 2015 Mar. 1; 14(3):649-58. After 72 hours of culture with the compound of Formula (I), MV-411 (TP53 wt) and HEL-92 cells (TP53 mutant) were stained with antibodies against various Bcl-2 family proteins and data acquired using intracellular flow cytometry (FIG. 5(B)).

[4] = system: patients with R/R AML; experiment: Gene expression in PBMC from treated patients with R/R AML; assay type: in vivo, human
Procedure: For patients with R/R AML, the compound of Formula (I) was administered at 120 mg (n=3), 180 mg (n=2), 240 mg (n=8), or 360 mg (n=4) daily for QD for seven days in dose-escalation phase, with different ‘off-treatment’ duration depending on cohort assignments. Samples taken at pre-dose on Cycle 1, Day 1 (C1D1) and Cycle 1, Day 5 (C1D5).
Treatment of patients with R/R AML with the compound of Formula (I) induces expression of genes involved in the Bcl-2 apoptotic pathway. […] FIG. 8 illustrates induced expression of Bcl-2 genes in PBMC following treatment of R/R AML patients with the compound of Formula (I). Eighteen genes were included in analysis: BAD, BAX, BCL2L1, MCL1, BCL2, BID, CAPN2, CASP10, CASP3, CASP7, CASP8, CASP9, TNFRSF10A, TNFRSF10B, TP53, PUMA, NOXA and STAT3. Experimental data was obtained similar to the method set forth in Example 4.

[5] = system: HEL-92 cells (TP53 mutant); experiment: Bcl-2 family protein expression in HEL-92 cells, intracellular flow cytometry; assay type: cell-based; conditions: 72 hours
Procedure: as §1

[6] = system: patients with R/R myelofibrosis; experiment: mRNA expression in cells isolated from treated patients with R/R myelofibrosis; assay type: in vivo, human; conditions: 120 mg or 240 mg for 5 or 7 days, C1D1 pre-dose vs C1D5
Procedure: Treatment of patients with the compound of Formula (I) induces p21, Bax and Puma expression in vivo in patients with R/R myelofibrosis or R/R AML. mRNA expression in cells isolated from patients was evaluated pre-dosing on day 1 and 24 hours after the first course of treatment with the compound of Formula (I) in patients with R/R myelofibrosis (FIG. 7(A)). The compound of Formula (I) is administered at 120 mg for 7 days for Cohort 1, 240 mg for 7 days for Cohort 2, 240 mg for 7 days for Cohort 3, and 240 mg for 5 days for Cohort 4. Samples taken at pre-dose on Cycle 1, Day 1 (C1D1) and Cycle 1, Day 5 (C1D5).

[7] = 120-360 mg QD for seven days, C1D1 pre-dose vs C1D5

Question: Which “protein expression of BIM” value [1] does the source give for CC(C)[C@@H](CS(=O)(=O)C(C)C)N1C(=O)[C@@](C)(CC(=O)O)C[C@H](c2cccc(Cl)c2)[C@H]1c1ccc(Cl)cc1 [Formula (I), 2-((3R,5R,6S)-5-(3-chlorophenyl)-6-(4-chlorophenyl)-1-((S)-1-(isopropylsulfonyl)-3-methylbutan-2-yl)-3-methyl-2-oxopiperidin-3-yl) acetic acid] here?
Answer: induced protein expression

Question: And the “protein expression of Bak” value [1]?
Answer: induced protein expression

Question: What about the “protein expression of Bax” value [1] of the same compound?
Answer: induced protein expression

Question: And the “expression of anti-apoptotic protein Bcl-2” value [2]?
Answer: decreased expression

Question: What about the “expression of pro-apoptotic protein Bak” value [2] of the same compound?
Answer: increased expression

Question: What about the “cell apoptosis (percent cPARP+ above basal spontaneous apoptosis)” value ([2]; increasing concentrations) of the same compound?
Answer: increased cell apoptosis in a dose-dependent manner

Question: What about the “anti-apoptotic Bcl-XL levels” value ([2]; increasing concentrations, MFI) of the same compound?
Answer: decrease

Question: And the “anti-apoptotic Mcl-1 levels” value ([2]; increasing concentrations, MFI)?
Answer: decrease

Question: What about the “intracellular P53 levels” value ([2]; increasing concentrations, MFI) of the same compound?
Answer: increase

Question: What about the “pro-apoptotic Bax levels” value ([2]; increasing concentrations, MFI) of the same compound?
Answer: increase

Question: And the “anti-apoptotic Bcl-2 family proteins” value [3]?
Answer: decrease

Question: What about the “pro-apoptotic effector protein Bak” value [3] of the same compound?
Answer: increase

Question: And the “pro-apoptotic effector protein Bax” value [3]?
Answer: increase

Question: And the “expression of Bax (gene expression)” value [4, 7]?
Answer: increased expression

Question: What about the “expression of Puma (gene expression)” value [4, 7] of the same compound?
Answer: increased expression

Question: And the “expression of p21 (gene expression)” value [4, 7]?
Answer: increased expression

Question: What about the “expression of genes involved in the BCL2 family/apoptosis pathway” value ([4]; cells isolated from peripheral blood (PBMC), eighteen genes) of the same compound?
Answer: induced the expression

Question: And the “changes in Bcl-2 family proteins” value [5]?
Answer: no changes

Question: And the “expression of Bax (mRNA)” value [6]?
Answer: increased expression

Question: And the “expression of p21 (mRNA)” value [6]?
Answer: increased expression
